Reference: ChEMBL document CHEMBL3108720, “Polygonumosides A-D, stilbene derivatives from processed roots of Polygonum multiflorum” (J Nat Prod, 2014)

System: Radical scavenging activity
Test: Antioxidant activity of the compound assessed as DPPH free radical scavenging activity after 30 mins
Type: functional

IC50 [µM]	Compound
> 2000	OC[C@H]1O[C@@H](Oc2c(O)cc(O)cc2[C@H](O)[C@@H](c2ccc(O)cc2)c2c(O)cc(O)c(O[C@@H]3O[C@H](CO)[C@@H](O)[C@H](O)[C@H]3O)c2/C=C/c2ccc(O)cc2)[C@H](O)[C@@H](O)[C@@H]1O
> 2000	OC[C@H]1O[C@@H](Oc2c(O)cc(O)cc2[C@@H](O)[C@H](c2ccc(O)cc2)c2c(O)cc(O)c(O[C@@H]3O[C@H](CO)[C@@H](O)[C@H](O)[C@H]3O)c2/C=C/c2ccc(O)cc2)[C@H](O)[C@@H](O)[C@@H]1O
569	O=c1oc2cc(O[C@@H]3O[C@H](CO)[C@@H](O)[C@H](O)[C@H]3O)c3c(c2c2c(O)c(O)c(O)cc12)O[C@@H](c1ccc(O)cc1)C3
298	O=c1oc2cc(O[C@@H]3O[C@H](CO)[C@@H](O)[C@H](O)[C@H]3O)c3c(c2c2c(O)c(O)c(O)cc12)O[C@H](c1ccc(O)cc1)C3
